Ends that are not written are not given here.
Tests used:
[1] = test system: antibodies against HCV; test: PEPSCAN analysis of overlapping octameric peptides of the HCV core protein N-terminal region with HCV-seropositive sera; format: binding, human; conditions: for Absorbance Units for different sera: read at 405 nm
From the text: The N-terminal 97 amino acid residues of HCV Core protein SEQ ID NO: 8 was mapped with PEPSCAN analysis. This process involved the serological analysis of sequentially overlapping peptides which spanned the region of interest, to identify epitopic domains. Ninety overlapping octameric peptides were synthesized on polypropylene pin supports according to the manufacturer's instructions (Cambridge Research Biochemicals), such that each peptide overlapped with the preceding sequence by the seven N-terminal residues, and with the subsequent peptide by the seven C-terminal residues. Serum or IgG purified from the serum of individuals confirmed to be seropositive for HCV were used to screen the peptides.
The assay procedure followed was performed basically as described in the manufacturers instruction manual. The time and temperature of the test antibody incubation differed from that prescribed, thereby decreasing the time taken for each assay.
Sera: A total of 16 sera were assayed by PEPSCAN. These consisted of 12 sera from paid U.S. Donors which were identified as being positive for antibodies against HCV in routine screening at the site of donation. The remaining four sera were from patients diagnosed as having non-A non-B hepatitis, and which were subsequently shown to contain antibodies to HCV. Sera were screened either as the crude serum fraction, or as a caprylic acid preparation. Caprylic acid purification of IgG from the sera was performed as described by Stienbuch and Audran (1969) Arch. Biochem. Biophys. 134, 279-284.
Assay: The assay format involves sequentially incubating the various pins in microwell plates containing blocking, test antibody, conjugate, and substrate solutions. The immune complex builds up on the pin with the enzyme labelled conjugate being immobilized on the bound anti-peptide antibody from the test serum. When the pin is then immersed in substrate, the enzyme brings about the colour change which is used to quantify the amount of anti-peptide antibody bound.
Blocking: Pins are immersed in 200 μl of Supercocktail (1% Ovalbumin, 1% bovine serum albumin in 0.15M phosphate buffered saline pH 7.2—0.1% Tween 20) and left to stand at room temperature for 1 hour.
Test antibody: The test antibody is diluted between 1/200 (IgG) and 1/1000 (serum) in supercocktail. The pins are then stood in this solution (175 μl/well) at 37° C. for 1 hour. After this incubation the pins are washed four times in 0.15M phosphate buffered saline pH 7.2—0.05% Tween 20, each at room temperature for 10 minutes.
Conjugate: Rabbit anti-human IgG coupled to horseradish peroxidase is diluted 1/1000 in supercocktail. The peptide bearing pins are then stood in this solution at room temperature for 1 hour. Once again the pins are then washed four times as above.
Substrate: The substrate solution is made up fresh for each assay. To 100 ml of 0.1M phosphate, 0.08M citrate buffer pH 4.0 is dissolved 50 mg of 2,2′-AZINO-bis (3-ethylbenzthiazo-linsulphonic acid (ABTS) and 0.3 μl/ml 30% hydrogen peroxide is added. The pins are immersed in the wells containing substrate solution (150 μl/well) and incubated at room temperature in the dark. Once sufficient colour has developed the reaction is stopped by removing the pins. The plates are then read immediately in a spectrophotometric plate reader at a wavelength of 405 nm. The absorbance values are then plotted against pin number. The epitopic domains are then defined as the continuous sequence of amino acids common to all positive pins in the domain i.e.

[2] = test system: antibodies against HCV; test: Replacement Net analysis of the core immunodominant epitope YLLPRR with 12 paid donor human sera; format: binding; conditions: n = 12 sera; for Frequency of relative signal strength: All: acceptable when signal 80% of the parent sequence or greater; for Frequency of relative signal strength: 2nd-5th / Frequency of relative signal strength: 6th-10th / Frequency of relative signal strength: Below 10th / Frequency of relative signal strength: Highest: rank of replacement residue at that position
Procedure: The Replacement Net Method was used to sequentially replace each of the constituent amino acid residues in the epitope with each of the other genetically encoded amino acids.
For Replacement Net analysis, a parent sequence is entered into the Epitope Mapping Software provided by Cambridge Research Biochemicals, and a set of replacement peptides is generated. This process was performed for the six amino acid residue immunodominant core epitope of HCV. The peptides were synthesized on polypropylene pins as directed by the manufacturer (CRB). The Assay format was identical to that followed for PEPSCAN above.
The Replacement Net of the core immunodominant epitope sequence Tyr-Leu-Leu-Pro-Arg-Arg (YLLPRR) (SEQ ID NO: 1 and 2) with the 12 paid donor human sera as described above was considered.
For each position within the epitope, the frequency of each replacement residue as an acceptable replacement for the parent sequence is given. Replacement residues were deemed acceptable when the signal of the new peptide was 80% of the parent sequence or greater.
The residue in italics is the parent sequence.

[3] = listed as 2-Leucine L, epitope position 2-Leucine, residue L
[4] = listed as 3-Leucine L, epitope position 3-Leucine, residue L
[5] = listed as 5-Arginine R, epitope position 5-Arginine, residue R
[6] = listed as 6-Arginine R, epitope position 6-Arginine, residue R

Substance: PRRGPPLG [overlapping octameric peptide of HCV core protein on pin support]
- Absorbance Units for different sera ([1]; serum 65221): 85 Absorbance Units
- Absorbance Units for different sera ([1]; serum 65234): 109 Absorbance Units
- Absorbance Units for different sera ([1]; serum 65241): 73 Absorbance Units
- Absorbance Units for different sera ([1]; serum 65276): 129 Absorbance Units
- Absorbance Units for different sera ([1]; serum L): 110 Absorbance Units

Substance: QIVGGVYL (pin support) [overlapping octameric peptide of HCV core protein on pin support]
- Absorbance Units for different sera ([1]; serum 65221): 329 Absorbance Units
- Absorbance Units for different sera ([1]; serum 65234): 152 Absorbance Units
- Absorbance Units for different sera ([1]; serum 65241): 125 Absorbance Units
- Absorbance Units for different sera ([1]; serum 65276): 165 Absorbance Units
- Absorbance Units for different sera ([1]; serum L): 161 Absorbance Units

Substance: RGPRLGVR (pin support) [overlapping octameric peptide of HCV core protein on pin support]
- Absorbance Units for different sera ([1]; serum 65221): 168 Absorbance Units
- Absorbance Units for different sera ([1]; serum 65234): 99 Absorbance Units
- Absorbance Units for different sera ([1]; serum 65241): 94 Absorbance Units
- Absorbance Units for different sera ([1]; serum 65276): 167 Absorbance Units
- Absorbance Units for different sera ([1]; serum L): 132 Absorbance Units

Substance: RLGVRATR (pin support) [overlapping octameric peptide of HCV core protein on pin support]
- Absorbance Units for different sera ([1]; serum 65221): 81 Absorbance Units
- Absorbance Units for different sera ([1]; serum 65234): 100 Absorbance Units
- Absorbance Units for different sera ([1]; serum 65241): 180 Absorbance Units
- Absorbance Units for different sera ([1]; serum 65276): 177 Absorbance Units
- Absorbance Units for different sera ([1]; serum L): 124 Absorbance Units

Substance: RRGPRLGV (pin support) [overlapping octameric peptide of HCV core protein on pin support]
- Absorbance Units for different sera ([1]; serum 65221): 145 Absorbance Units
- Absorbance Units for different sera ([1]; serum 65234): 146 Absorbance Units
- Absorbance Units for different sera ([1]; serum 65241): 85 Absorbance Units
- Absorbance Units for different sera ([1]; serum 65276): 150 Absorbance Units
- Absorbance Units for different sera ([1]; serum L): 123 Absorbance Units

Substance: VGGVYLLP (pin support) [overlapping octameric peptide of HCV core protein on pin support]
- Absorbance Units for different sera ([1]; serum 65221): 83 Absorbance Units
- Absorbance Units for different sera ([1]; serum 65234): 235 Absorbance Units
- Absorbance Units for different sera ([1]; serum 65241): 144 Absorbance Units
- Absorbance Units for different sera ([1]; serum 65276): 132 Absorbance Units
- Absorbance Units for different sera ([1]; serum L): 169 Absorbance Units

Substance: VYLLPRRG (pin support) [Val-Tyr-Leu-Leu-Pro-Arg-Arg-Gly, overlapping octameric peptide of HCV core protein on pin support]
- Absorbance Units for different sera ([1]; serum 65221): 769 Absorbance Units
- Absorbance Units for different sera ([1]; serum 65234): 280 Absorbance Units
- Absorbance Units for different sera ([1]; serum 65241): 641 Absorbance Units
- Absorbance Units for different sera ([1]; serum 65276): 440 Absorbance Units
- Absorbance Units for different sera ([1]; serum L): 306 Absorbance Units

Substance: YLLPRR [YLLPRR]
- Frequency of relative signal strength: All ([2]; listed as 1-Tyrosine Y): 11
- Frequency of relative signal strength: All [2, 3]: 8
- Frequency of relative signal strength: All [2, 4]: 3
- Frequency of relative signal strength: All ([2]; listed as 4-Proline P): 5
- Frequency of relative signal strength: All [2, 5]: 10
- Frequency of relative signal strength: All [2, 6]: 11
- Frequency of relative signal strength: 2nd-5th ([2]; listed as 1-Tyrosine Y): 3
- Frequency of relative signal strength: 6th-10th ([2]; listed as 1-Tyrosine Y): 5
- Frequency of relative signal strength: Below 10th ([2]; listed as 1-Tyrosine Y): 1
- Frequency of relative signal strength: Highest ([2]; listed as 1-Tyrosine Y): 2
- Frequency of relative signal strength: 2nd-5th [2, 3]: 2
- Frequency of relative signal strength: 6th-10th [2, 3]: 3
- Frequency of relative signal strength: Below 10th [2, 3]: 2
- Frequency of relative signal strength: Highest [2, 3]: 1
- Frequency of relative signal strength: 2nd-5th [2, 4]: 0
- Frequency of relative signal strength: 6th-10th [2, 4]: 1
- Frequency of relative signal strength: Below 10th [2, 4]: 0
- Frequency of relative signal strength: Highest [2, 4]: 2
- Frequency of relative signal strength: 2nd-5th ([2]; listed as 4-Proline P): 1
- Frequency of relative signal strength: 6th-10th ([2]; listed as 4-Proline P): 1
- Frequency of relative signal strength: Below 10th ([2]; listed as 4-Proline P): 0
- Frequency of relative signal strength: Highest ([2]; listed as 4-Proline P): 3
- Frequency of relative signal strength: 2nd-5th [2, 5]: 2
- Frequency of relative signal strength: 6th-10th [2, 5]: 1
- Frequency of relative signal strength: Below 10th [2, 5]: 7
- Frequency of relative signal strength: Highest [2, 5]: 0
- Frequency of relative signal strength: 2nd-5th [2, 6]: 1
- Frequency of relative signal strength: 6th-10th [2, 6]: 5
- Frequency of relative signal strength: Below 10th [2, 6]: 3
- Frequency of relative signal strength: Highest [2, 6]: 2
- Detection of the epitope by sera ([1]; 16 sera assayed by PEPSCAN): detected to a greater or lesser extent by all of the sera tested

Substance: YLLPRRGP (pin support) [Tyr-Leu-Leu-Pro-Arg-Arg-Gly-Pro, overlapping octameric peptide of HCV core protein on pin support]
- Absorbance Units for different sera ([1]; serum 65221): 332 Absorbance Units
- Absorbance Units for different sera ([1]; serum 65234): 177 Absorbance Units
- Absorbance Units for different sera ([1]; serum 65241): 367 Absorbance Units
- Absorbance Units for different sera ([1]; serum 65276): 248 Absorbance Units
- Absorbance Units for different sera ([1]; serum L): 242 Absorbance Units
